From patent US20220386606A1, “SPECIFICALLY SUBSTITUTED 3-PHENYL-5-SPIROCYCLOPENTYL-3-PYRROLIN-2-ONES AND THEIR USE AS HERBICIDES” (Bayer Aktiengesellschaft, priority 2019, published 2022)

Columns and labels:
[1] = test system: LOLRI; experiment: Pre-emergence herbicidal action against LOLRI (Table 8, titled post-emergence at 320 g/ha); format: in vivo, Lolium rigidum; details: table stands in the pre-emergence section
Procedure, shortened: (§1)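 Scoring is visual, 3 weeks post-application, on a 0 to 100% scale relative to untreated controls (100% = plants died). Treatment is pre-emergence: aqueous suspensions or emulsions applied to the covering soil at 600 to 800 L/ha with 0.2% wetting agent.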

[2] = test system: DIGSA; experiment: Post-emergence herbicidal action against DIGSA; format: in vivo, Digitaria sanguinalis; details: 80 g/ha, visual assessment about 3 weeks after treatment vs untreated controls
Procedure, shortened: (§2)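 Herbicidal action is rated visually in percent against untreated controls, where 100% means dead plants and 0% means no difference. Ratings come about 3 weeks after foliar spraying of one-leaf-stage plants with aqueous WP or EC preparations plus 0.2% wetting agent at 600 to 800 l/ha.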

[3] = test system: SETVI; experiment: Post-emergence herbicidal action against SETVI; format: in vivo, Setaria viridis; details: 80 g/ha, visual assessment about 3 weeks after treatment vs untreated controls
Procedure, shortened: as §2

[4] = test system: LOLRI; experiment: Post-emergence herbicidal action against LOLRI; format: in vivo, Lolium rigidum; details: 80 g/ha, visual assessment about 3 weeks after treatment vs untreated controls
Procedure, shortened: as §2

[5] = test system: VIOTR; experiment: Pre-emergence herbicidal action against VIOTR; format: in vivo, Viola tricolor; details: 320 g/ha
From the text: (§3) Seeds of monocotyledonous and dicotyledonous weed plants and crop plants are laid out in sandy loam soil in wood-fiber pots and covered with soil. The compounds of the invention, formulated in the form of wettable powders (WP) or as emulsion concentrates (EC), are then applied to the surface of the covering soil as aqueous suspension or emulsion at a water application rate equating to 600 to 800 L/ha with addition of 0.2% wetting agent.
(§4) After the treatment, the pots are placed in a greenhouse and kept under good growth conditions for the trial plants. The damage to the test plants is scored visually after a test period of 3 weeks by comparison with untreated controls (herbicidal activity in percent (%): 100% activity=the plants have died, 0% activity=like control plants).

[6] = test system: AMARE; experiment: Pre-emergence herbicidal action against AMARE; format: in vivo, Amaranthus retroflexus; details: 320 g/ha
From the text: as §3, §4

[7] = test system: MATIN; experiment: Pre-emergence herbicidal action against MATIN; format: in vivo; details: 320 g/ha
From the text: as §3, §4

[8] = test system: ECHCG; experiment: Pre-emergence herbicidal action against ECHCG; format: in vivo, Echinochloa crus-galli; details: 320 g/ha, scored visually after 3 weeks vs untreated controls
Procedure, shortened: as §1

[9] = test system: ALOMY; experiment: Pre-emergence herbicidal action against ALOMY; format: in vivo, Alopecurus myosuroides; details: 320 g/ha, scored visually after 3 weeks vs untreated controls
Procedure, shortened: as §1

[10] = test system: ECHCG; experiment: Post-emergence herbicidal action against ECHCG; format: in vivo, Echinochloa crus-galli; details: 80 g/ha, visual assessment about 3 weeks after treatment vs untreated controls
Procedure, shortened: as §2

[11] = test system: AVEFA; experiment: Post-emergence herbicidal action against AVEFA; format: in vivo, Avena fatua; details: 80 g/ha, visual assessment after about 3 weeks
Procedure, shortened: as §2

[12] = test system: DIGSA; experiment: Pre-emergence herbicidal action against DIGSA; format: in vivo, Digitaria sanguinalis; details: 320 g/ha, scored visually after 3 weeks vs untreated controls
Procedure, shortened: as §1

[13] = test system: SETVI; experiment: Pre-emergence herbicidal action against SETVI; format: in vivo, Setaria viridis; details: 320 g/ha, scored visually after 3 weeks vs untreated controls
Procedure, shortened: as §1

[14] = test system: ALOMY; experiment: Post-emergence herbicidal action against ALOMY; format: in vivo, Alopecurus myosuroides; details: 80 g/ha, visual assessment after about 3 weeks
Procedure, shortened: as §2

[15] = test system: AVEFA; experiment: Pre-emergence herbicidal action against AVEFA; format: in vivo, Avena fatua; details: 320 g/ha, scored visually after 3 weeks vs untreated controls
Procedure, shortened: as §1

[16] = test system: VERPE; experiment: Pre-emergence herbicidal action against VERPE; format: in vivo, Veronica persica; details: 320 g/ha
From the text: as §3, §4

Row | SMILES | Pre-emergence herbicidal action against LOLRI in % [1] | Post-emergence action against DIGSA in % [2] | Post-emergence action against SETVI in % [3] | Post-emergence action against LOLRI in % [4] | Pre-emergence action against VIOTR in % [5] | Pre-emergence action against AMARE in % [6] | Pre-emergence action against MATIN in % [7] | Pre-emergence action against ECHCG in % [8] | Pre-emergence action against ALOMY in % [9] | Post-emergence action against ECHCG in % [10] | Post-emergence action against AVEFA in % [11] | Pre-emergence action against DIGSA in % [12] | Pre-emergence action against SETVI in % [13] | Post-emergence action against ALOMY in % [14] | Pre-emergence action against AVEFA in % [15] | Pre-emergence action against VERPE in % [16]
1 | CC#Cc1cc(C)c(C2=C(O)C3(CCC(COCCC)C3)NC2=O)c(OC)c1 (centres unmarked) [Example I-59] | 100% | 100% | 100% | 90% | 100% | 100% | 80% | 100% | 100% | 100% | 90% | 100% | 100% | 100% |  | 
2 | C=CCOCC1CCC2(C1)NC(=O)C(c1c(C)cc(C#CC)cc1Br)=C2O (centres unmarked) [Example I-67] | 100% | 90% | 90% | 90% | 100% |  | 80% | 100% | 100% | 90% |  | 100% | 100% | 100% | 80% | 
3 | C#CCOCC1CCC2(C1)NC(=O)C(c1c(F)cc(C#CC)cc1OC)=C2O (centres unmarked) [Example I-75] | 100% | 90% | 100% | 90% |  | 80% | 90% | 90% | 90% | 100% | 90% | 100% | 100% | 90% | 100% | 
4 | C#CCOCC1CCC2(C1)NC(=O)C(c1c(C)cc(C#CC)cc1OC)=C2O (centres unmarked) [Example I-77] | 100% | 90% | 100% | 90% |  | 100% | 80% | 100% | 100% | 100% | 90% | 100% | 100% | 100% | 100% | 
5 | CC#Cc1cc(C)c(C2=C(OC(=O)C(C)C)C3(CCC(COCC)C3)NC2=O)c(Br)c1 (centres unmarked) [Example P-37] | 100% | 100% | 100% | 100% | 100% | 100% |  | 100% | 100% | 100% | 90% | 100% | 100% | 100% | 80% | 80%
6 | CC#Cc1cc(C)c(C2=C(OC(=O)C(C)C)C3(CCC(COCC)C3)NC2=O)c(OC)c1 (centres unmarked) [Example P-50] | 100% | 90% | 100% | 100% | 100% | 100% |  | 100% | 100% | 100% | 90% | 100% | 100% | 100% | 100% | 80%
7 | CC#Cc1cc(C)c(C2=C(OC(=O)C(C)C)C3(CCC(COCC)C3)NC2=O)c(F)c1 (centres unmarked) [Example P-56] | 100% | 100% | 100% | 100% | 100% | 80% | 80% | 100% | 100% | 100% | 90% | 100% | 100% | 100% | 80% | 
8 | CC#Cc1cc(C)c(C2=C(OC(=O)OCC)C3(CCC(COCCOC)C3)NC2=O)c(OC)c1 (centres unmarked) [Example P-79] | 100% | 90% | 100% | 90% | 100% | 80% |  | 100% | 100% | 100% | 90% | 100% | 100% | 100% | 100% | 90%
9 | CC#Cc1cc(F)c(C2=C(OC(=O)OCC)C3(CCC(COCCC)C3)NC2=O)c(OC)c1 (centres unmarked) [Example P-84] | 100% | 90% | 100% | 80% | 80% |  | 80% | 100% | 100% | 100% | 80% | 100% | 100% |  | 80% | 
10 | C#CCOCC1CCC2(C1)NC(=O)C(c1c(C)cc(C#CC)cc1Cl)=C2OC(=O)OCC (centres unmarked) [Example P-99] | 100% | 90% | 100% | 90% | 100% | 100% |  | 100% | 100% | 100% | 80% | 100% | 100% | 100% | 100% | 100%
11 | C#CCOCC1CCC2(C1)NC(=O)C(c1c(C)cc(C#CC)cc1OC)=C2OC(=O)OCC (centres unmarked) [Example P-101] | 100% | 90% | 100% | 100% | 80% | 100% | 80% | 100% | 100% | 100% | 80% | 100% | 100% | 100% | 100% | 
